US20090111856A1, “Parenteral Formulation Comprising Proton Pump Inhibitor Sterilized in its Final Container by Ionizing Radiation” (priority 2006, published 2009)

Experiment: Appearance of acid susceptible proton pump inhibitor powders before and after gamma sterilization
Assay type: physicochemical
Conditions: for Color change after radiation: gamma sterilization 25 kGy; for Appearance After sterilization (25 kGy) / Appearance Before sterilization: powder; for Appearance After sterilization (25 kGy): after gamma sterilization 25 kGy; for Appearance Before sterilization: before gamma sterilization
Experimental: In addition to esomeprazole sodium exemplified in Example 1, three other acid susceptible proton pump inhibitors, omeprazole sodium, pantoprazole sodium and lansoprazole, were gamma sterilized with a sterilizing dose of 25 kGy. The appearance of the powder was determined before and after gamma sterilization.

Row | Color change after radiation | Appearance After sterilization (25 kGy) | Appearance Before sterilization | SMILES
1 | no color change |  |  | Cc1c(OCC(F)(F)F)ccnc1C[S+]([O-])c1nc2ccccc2[nH]1 (stereo not shown) [Lansoprazole]
2 | some small (very minor) color changes | Very slightly yellow | White to off-white | COc1ccnc(C[S+]([O-])c2nc3ccc(OC(F)F)cc3[nH]2)c1OC (stereo not shown) [Pantoprazole sodium]
3 | some small (very minor) color changes | Very slightly yellow | White to off-white | COc1ccc2[n-]c([S+]([O-])Cc3ncc(C)c(OC)c3C)nc2c1.[Na+] (stereo not shown) [Omeprazole sodium]
